Measurements from US10202372B2, “Trisubstituted pyrido[2,3-D]pyrimidines, methods for preparing same and therapeutic uses thereof” (CENTRE NATIONAL DE LA RECHERCHE SCIENTIFIQUE (C.N.R.S), priority 2012, dated 2019).
Structures can show the parent of a compound that is named as a salt.

Tests used:
PI3Kα = PI3Kα (Homo sapiens, UniProt P42336); assay: PI3Kα kinase activity, Adapta TR-FRET ADP detection; assay type: biochemical; conditions: purified p110α/p85α heterodimer, triplicate; read-out: Kinases IC50 PI3Kα
Chain of PI3Kα (P42336 whole entry): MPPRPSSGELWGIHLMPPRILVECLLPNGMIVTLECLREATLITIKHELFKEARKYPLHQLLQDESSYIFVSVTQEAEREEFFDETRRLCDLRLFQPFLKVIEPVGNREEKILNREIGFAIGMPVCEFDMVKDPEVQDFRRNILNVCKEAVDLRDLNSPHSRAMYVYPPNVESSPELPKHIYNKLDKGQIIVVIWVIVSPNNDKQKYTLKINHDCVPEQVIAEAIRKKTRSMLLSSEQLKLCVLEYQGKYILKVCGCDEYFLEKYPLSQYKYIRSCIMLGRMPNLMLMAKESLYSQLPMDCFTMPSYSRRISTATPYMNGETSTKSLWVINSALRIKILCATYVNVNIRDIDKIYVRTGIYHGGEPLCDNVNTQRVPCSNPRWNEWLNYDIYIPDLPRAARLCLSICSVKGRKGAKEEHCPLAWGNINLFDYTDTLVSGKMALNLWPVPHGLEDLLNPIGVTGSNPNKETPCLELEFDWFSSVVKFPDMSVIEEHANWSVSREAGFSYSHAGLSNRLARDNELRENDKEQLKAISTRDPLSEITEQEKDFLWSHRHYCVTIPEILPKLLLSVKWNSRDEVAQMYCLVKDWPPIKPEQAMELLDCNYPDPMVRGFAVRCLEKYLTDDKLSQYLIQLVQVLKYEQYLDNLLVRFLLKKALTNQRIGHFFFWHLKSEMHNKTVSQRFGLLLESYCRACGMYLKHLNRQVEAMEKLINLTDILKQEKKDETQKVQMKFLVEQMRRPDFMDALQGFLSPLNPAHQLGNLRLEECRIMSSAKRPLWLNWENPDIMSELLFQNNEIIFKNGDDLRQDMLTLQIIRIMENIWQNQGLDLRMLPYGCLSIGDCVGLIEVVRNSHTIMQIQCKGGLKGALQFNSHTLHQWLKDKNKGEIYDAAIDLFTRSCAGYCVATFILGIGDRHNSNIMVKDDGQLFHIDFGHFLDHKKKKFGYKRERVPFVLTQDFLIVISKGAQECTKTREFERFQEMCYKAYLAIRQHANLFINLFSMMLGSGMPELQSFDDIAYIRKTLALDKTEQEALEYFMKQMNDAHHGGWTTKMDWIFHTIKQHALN
Chain of PI3Kα (P27986 whole entry partner): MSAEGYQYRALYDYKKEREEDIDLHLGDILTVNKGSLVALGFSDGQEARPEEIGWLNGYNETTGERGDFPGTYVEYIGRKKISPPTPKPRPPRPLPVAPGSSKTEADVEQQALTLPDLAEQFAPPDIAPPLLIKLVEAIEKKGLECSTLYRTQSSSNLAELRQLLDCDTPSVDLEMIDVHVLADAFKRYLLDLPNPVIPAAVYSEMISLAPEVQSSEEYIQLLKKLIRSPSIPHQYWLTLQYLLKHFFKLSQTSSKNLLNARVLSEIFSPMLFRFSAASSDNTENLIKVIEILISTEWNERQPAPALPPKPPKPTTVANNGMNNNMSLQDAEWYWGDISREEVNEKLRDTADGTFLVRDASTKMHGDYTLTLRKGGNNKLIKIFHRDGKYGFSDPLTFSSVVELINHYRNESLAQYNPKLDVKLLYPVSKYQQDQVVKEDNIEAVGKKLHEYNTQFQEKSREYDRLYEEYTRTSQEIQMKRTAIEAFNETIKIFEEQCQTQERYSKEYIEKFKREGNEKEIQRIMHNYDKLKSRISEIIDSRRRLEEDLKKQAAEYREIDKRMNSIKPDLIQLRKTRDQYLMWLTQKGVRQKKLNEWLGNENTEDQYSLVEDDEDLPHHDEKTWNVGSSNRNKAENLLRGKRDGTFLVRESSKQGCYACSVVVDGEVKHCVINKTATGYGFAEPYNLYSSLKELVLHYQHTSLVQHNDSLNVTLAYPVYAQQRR
Method: (§1) The activity of the PI3Kα kinase was evaluated by using a purified heterodimer (reference: PV4788 from Invitrogen) consisting of the α catalytic p110 subunit (PIK3CA) and the α regulation p85 subunit (PIK3R1). The assay of the kinase with the kit Adapta™ (reference: PV5099 from Invitrogen) is an enzymatic test based on the detection of ADP, produced during the reaction, by the fluorescence technique TR-FRET. It took place in a 384-well plate and was able to be divided into two phases: an enzymatic reaction phase, and a phase for detecting the ADP level.
(§2) During the enzymatic reaction phase, the following components were mixed in 10 μL of a same well: 2.5 μL of each dilution in series of inhibitors taken up in DMSO and then diluted to 1/25 in the reaction buffer (250 mM HEPES pH 7.5, 500 mM NaCl, 0.15 CHAPS, 5 mM EGTA, 15 mM MgCl2 and 1 mM DTT, ref.: PV5101 from Invitrogen), 2.5 μL of a solution containing PI3K at the optimum concentration (concentration defined according to the optimization step described in the operating procedure of the kit) diluted in the same reaction buffer, and finally, 5 μL of a solution containing 20 μM ATP and 100 μM PIP2 diluted in the reaction buffer. For each inhibitor concentration, the reaction was conducted in three copies (triplicate). The reaction was then incubated for 60 min at room temperature without any stirring in darkness.
(§3) During the phase for detecting ADP, 5 μL of a detection solution containing an anti-ADP antibody labeled with europium (6 nM), a tracer of the Alexa Fluor® 647 type coupled with ADP (30 nM), and EDTA (30 mM, for stopping the kinase reaction) were diluted in the dilution buffer (reference: PV3574 from Invitrogen). After 30 min of incubation at room temperature with stirring (40 rpm) in darkness, the 384-well plates were read in a plate reader Victor V configured for HTRF (Perkin Elmer). The excitation was produced at 340 nm and emission was measured at 665 nm and 615 nm. The inhibition curve was then plotted according to the emission ratio at 665 nm/615 nm versus the inhibitor concentration.
(§4) In order to obtain a linear response of the signal, a titration curve ATP-ADP, corresponding to the conversion % of ATP into ADP, was achieved by varying both of these species while keeping [ADP]+[ATP]=10 μM. The emission ratio at 665 nm/615 nm resulting from this (Y) was plotted versus the conversion % of ATP into ADP (X). The data of this curve were formatted according to a model with three hyperbolic parameters from the following equation: Y=C+A*(1−(X/(B+X))).
(§5) The software package GraphPad™ Prism® thus allows calculation of the parameters A, B and C. A conversion % corresponds to an emission ratio 665 nm/615 nm, this percentage is calculated by using the following equation: Conversion %=B*(C+A−Ratio)/(Ratio−C)
(§6) The three parameters A, B and C having been defined by the preceding equation, the conversion % was therefore able to be plotted versus the inhibitor concentration. The amount of inhibitor required for causing a 50% variation in the % conversion of ATP into ADP corresponds to the IC50 value of the inhibitor.

PI3Kγ = PI3Kγ (Homo sapiens, UniProt P48736); assay: PI3Kγ kinase activity, Adapta TR-FRET ADP detection; assay type: biochemical; conditions: p110γ catalytic subunit; read-out: Kinases IC50 PI3Kγ
Chain of PI3Kγ (P48736 whole entry): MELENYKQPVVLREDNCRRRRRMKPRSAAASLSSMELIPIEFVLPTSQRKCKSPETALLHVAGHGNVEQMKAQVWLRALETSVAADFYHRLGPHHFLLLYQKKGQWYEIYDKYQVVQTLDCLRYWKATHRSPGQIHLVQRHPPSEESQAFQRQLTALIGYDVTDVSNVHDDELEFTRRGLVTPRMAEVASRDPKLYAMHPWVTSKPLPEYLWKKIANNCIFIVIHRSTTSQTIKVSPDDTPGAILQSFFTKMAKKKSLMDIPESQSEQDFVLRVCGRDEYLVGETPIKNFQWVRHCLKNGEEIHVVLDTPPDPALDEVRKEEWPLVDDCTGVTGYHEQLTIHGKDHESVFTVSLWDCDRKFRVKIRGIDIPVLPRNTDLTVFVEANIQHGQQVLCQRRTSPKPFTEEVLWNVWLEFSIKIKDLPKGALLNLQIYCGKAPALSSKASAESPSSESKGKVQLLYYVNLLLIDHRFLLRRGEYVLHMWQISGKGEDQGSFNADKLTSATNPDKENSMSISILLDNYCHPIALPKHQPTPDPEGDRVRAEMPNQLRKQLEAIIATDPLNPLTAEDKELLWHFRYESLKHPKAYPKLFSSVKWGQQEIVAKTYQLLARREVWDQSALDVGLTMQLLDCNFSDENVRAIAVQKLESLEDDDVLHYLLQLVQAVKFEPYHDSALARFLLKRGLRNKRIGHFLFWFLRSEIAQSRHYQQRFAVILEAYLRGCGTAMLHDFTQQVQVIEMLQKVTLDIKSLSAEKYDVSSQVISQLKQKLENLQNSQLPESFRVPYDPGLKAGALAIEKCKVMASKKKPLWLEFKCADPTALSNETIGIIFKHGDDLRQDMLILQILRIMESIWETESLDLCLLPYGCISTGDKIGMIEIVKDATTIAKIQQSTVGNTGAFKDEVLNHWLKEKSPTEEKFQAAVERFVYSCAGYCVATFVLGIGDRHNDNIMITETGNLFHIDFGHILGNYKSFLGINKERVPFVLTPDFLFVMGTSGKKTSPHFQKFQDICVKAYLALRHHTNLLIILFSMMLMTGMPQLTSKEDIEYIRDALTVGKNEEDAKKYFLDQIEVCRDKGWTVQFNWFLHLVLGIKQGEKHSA
Method: as §1, §2, §3, §4, §5, §6
(§7) The activity of the kinase PI3Kγγ (PV4786 from Invitrogen) was evaluated on the p110γγ catalytic subunit (PI3KCG) and that of the kinase PI3Kδδ on the purified heterodimer (PV5273) respectively consisting of the δδ catalytic p110 subunit (PIK3CD) and the α regulation p85 subunit (PIK3R1) by following the same procedure.

PI3Kδ = PI3Kδ (Homo sapiens, UniProt O00329); assay: PI3Kδ kinase activity, Adapta TR-FRET ADP detection; assay type: biochemical; conditions: purified p110δ/p85α heterodimer; read-out: Kinases IC50 PI3Kδ
Chain of PI3Kδ (O00329 whole entry): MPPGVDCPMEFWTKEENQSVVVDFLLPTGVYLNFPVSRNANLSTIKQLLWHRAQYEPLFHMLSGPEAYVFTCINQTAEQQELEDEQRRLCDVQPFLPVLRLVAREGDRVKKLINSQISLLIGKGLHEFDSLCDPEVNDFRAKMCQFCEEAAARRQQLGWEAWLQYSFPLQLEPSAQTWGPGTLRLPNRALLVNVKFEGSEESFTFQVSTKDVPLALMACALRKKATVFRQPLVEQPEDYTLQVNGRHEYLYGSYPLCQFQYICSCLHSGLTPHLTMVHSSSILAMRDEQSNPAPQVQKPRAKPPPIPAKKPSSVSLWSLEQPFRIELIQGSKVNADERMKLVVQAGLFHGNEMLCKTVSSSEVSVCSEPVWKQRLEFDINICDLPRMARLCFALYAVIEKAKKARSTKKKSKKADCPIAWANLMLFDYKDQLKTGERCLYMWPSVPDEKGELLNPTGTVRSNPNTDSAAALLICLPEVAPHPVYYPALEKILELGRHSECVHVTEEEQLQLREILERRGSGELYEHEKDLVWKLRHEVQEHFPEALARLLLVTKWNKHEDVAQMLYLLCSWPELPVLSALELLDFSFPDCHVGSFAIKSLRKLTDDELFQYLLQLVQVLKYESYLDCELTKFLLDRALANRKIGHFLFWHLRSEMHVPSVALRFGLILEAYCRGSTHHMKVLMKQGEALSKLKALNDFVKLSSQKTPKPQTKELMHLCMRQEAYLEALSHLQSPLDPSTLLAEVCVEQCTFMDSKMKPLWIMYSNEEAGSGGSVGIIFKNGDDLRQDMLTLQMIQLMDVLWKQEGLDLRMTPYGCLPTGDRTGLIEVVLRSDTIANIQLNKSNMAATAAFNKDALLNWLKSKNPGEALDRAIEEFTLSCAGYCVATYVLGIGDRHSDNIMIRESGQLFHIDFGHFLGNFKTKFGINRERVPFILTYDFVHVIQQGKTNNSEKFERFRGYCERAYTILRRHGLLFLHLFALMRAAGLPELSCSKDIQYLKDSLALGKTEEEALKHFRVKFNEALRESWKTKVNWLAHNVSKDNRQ
Chain of PI3Kδ (P27986 whole entry partner): as the sequence (P27986 whole entry partner) above
Method: as §1, §2, §3, §4, §5, §6, §7

mTOR = mTOR (Homo sapiens, UniProt P42345); assay: mTOR kinase activity, LANCE Ultra TR-FRET; assay type: biochemical; conditions: truncated mTOR protein, triplicate; read-out: Kinases IC50 mTOR
Method: The activity of the mTOR kinase was evaluated by using a purified truncated protein of the amino acids 1-1359 (reference: PV4753 from Invitrogen). The assay of the activity of the enzyme was carried out with the kit LANCE® Ultra which is an enzymatic test based on the detection of a phosphorylated peptide produced during the reaction, by using the fluorescence technique TR-FRET. It took place in a 384-well plate and was able to be divided into two phases: an enzymatic reaction phase and a phase for detecting the phosphorylated peptide.
During the enzymatic reaction phase, the following components were mixed in 10 μL of a same well: 5 μL of each dilution in series of inhibitors taken up in DMSO and then diluted to 1/25 in the reaction buffer (50 mM HEPES pH 7.5, 0.1% Tween-20, 1 mM EGTA, 10 mM MnCl2, 3 mM MgCl2 and 2 mM of DTT), 2.5 μL of a solution containing mTOR at the optimum concentration (concentration defined according to the optimization step described in the operating procedure of the kit) diluted in the same reaction buffer, and finally 2.5 μL of a solution containing 40 μM of ATP and 200 μM non-phosphorylated peptide diluted in the reaction buffer. For each inhibitor concentration, the reaction was conducted in three copies (triplicate). The reaction was then incubated for 120 min at room temperature without any stirring in darkness.
During the phase for detecting the phosphorylated peptide, 5 μL of an EDTA solution (32 mM) diluted in the dilution buffer (ref.: CR97-100 from Perkin Elmer) were injected into each well. After 5 min of incubation with stirring, 5 μL of a phosphorylated anti-peptide antibody solution labeled with europium (8 nM) and diluted in the same dilution buffer was added into each well. After 60 min of incubation at room temperature with stirring (40 rpm) in darkness, the 384-well plates were read in a plate reader Victor V configured for HTRF (Perkin Elmer). […] The inhibition curve was then plotted according to the fluorescence intensity value at 665 nm versus the inhibitor concentration.
The amount of inhibitor required for causing a 50% variation in the intensity of the signal corresponds to the IC50 value of the inhibitor.

HUH7 = assay: Toxicity test on cells, HUH7; assay type: cell-based; conditions: Homo sapiens, Huh-7; 48 hours of treatment, Hoechst nuclei staining
Method: (§8) The compounds according to the invention were also tested on the cell lines HuH7, CaCo-2, HCT116, PC3, NCl, HacaT and Fibroblasts.
(§9) Operating Procedure: The cells were cultivated according to the ECACC recommendations. The toxicity test of the compounds on these cells was conducted as follows: 4×10^3 cells/well were sown in 96 wells. 24 hours after sowing the cells, the cells were exposed to increased concentrations of the compounds (0.1 μM-0.3 μM-0.9 μM-2.7 μM-8.3 μM-25 μM). After 48 hours of treatment, the cells were washed in PBS and bound in a cold ethanol/acetic acid (90/5) mixture for 20 minutes. Next, the nuclei were coloured with […] (Sigma). The acquisition of images and the analysis was carried out by means of a reader Cellomics ArrayScan VTI/HCS (Thermo Scientific).

CaCo2 = assay: Toxicity test on cells, CaCo2; assay type: cell-based; conditions: Homo sapiens, Caco-2; 48 hours of treatment, Hoechst nuclei staining
Method: as §8, §9

MDA = assay: Toxicity test on cells, MDA; assay type: cell-based; conditions: 48 hours of treatment, Hoechst nuclei staining
Method: [The procedure below names another cell line; the source lists this cell line under the same test.] as §8, §9

HCT116 = assay: Toxicity test on cells, HCT116; assay type: cell-based; conditions: Homo sapiens, HCT-116; 48 hours of treatment, Hoechst nuclei staining
Method: as §8, §9

PC3 = assay: Toxicity test on cells, PC3; assay type: cell-based; conditions: Homo sapiens, PC-3; 48 hours of treatment, Hoechst nuclei staining
Method: as §8, §9

NCl = assay: Toxicity test on cells, NCl; assay type: cell-based; conditions: 48 hours of treatment, Hoechst nuclei staining
Method: as §8, §9

HacaT = assay: Toxicity test on cells, HacaT; assay type: cell-based; conditions: Homo sapiens, 48 hours of treatment, Hoechst nuclei staining
Method: as §8, §9

Fibroblasts = assay: Toxicity test on cells, Fibroblasts; assay type: cell-based; conditions: Fibroblast; 48 hours of treatment, Hoechst nuclei staining
Method: as §8, §9

| Structure (SMILES) | melting point [°C] | IC50 (PI3Kα) [µM] | IC50 (PI3Kγ) [µM] | IC50 (PI3Kδ) [µM] | IC50 (mTOR) [µM] | IC50 (HUH7) [µM] | IC50 (CaCo2) [µM] | IC50 (MDA) [µM] | IC50 (HCT116) [µM] | IC50 (PC3) [µM] | IC50 (NCl) [µM] | IC50 (HacaT) [µM] | IC50 (Fibroblasts) [µM] |
| --- | --- | --- | --- | --- | --- | --- | --- | --- | --- | --- | --- | --- | --- |
| Oc1ccc(-c2nc(N3CCOCC3)c3ncc(Cl)cc3n2)cc1 [Compound 7, 4-(7-Chloro-4-morpholinopyrido[3,2-d]pyrimidin-2-yl)phenol] | 253 to 254 | 15.2 | > 50 | 1.5 | 0.184 | 25 | 25 | 25 | > 25 | 25 | > 25 | – | > 25 |
| Oc1ccccc1-c1nc(N2CCOCC2)c2ncc(Cl)cc2n1 [Compound 5, 2-(7-Chloro-4-morpholinopyrido[3,2-d]pyrimidin-2-yl)phenol] | 212 | – | – | – | – | > 25 | > 25 | > 25 | > 25 | > 25 | > 25 | – | > 25 |
| OCc1cccc(-c2nc(N3CCOCC3)c3ncc(Cl)cc3n2)c1 [Compound 8, (3-(7-Chloro-4-morpholinopyrido[3,2-d]pyrimidin-2-yl)phenyl)methanol] | 157 | 0.032 | 0.431 | 0.016 | > 50 | 25 | 3 | 20 | 5 | 20 | > 25 | – | 2 |
| COc1ccc(-c2nc(N3CCOCC3)c3ncc(Cl)cc3n2)cc1 [Compound 9, 4-(7-chloro-2-(4-methoxyphenyl)pyrido[3,2-d]pyrimidin-4-yl)morpholine] | 176 | 6.2 | 3.1 | 0.363 | > 50 | > 25 | > 25 | > 25 | > 25 | > 25 | > 25 | > 25 | > 25 |

Second part, led by results:

| melting point [°C] | IC50 (PI3Kα) [µM] | IC50 (PI3Kγ) [µM] | IC50 (PI3Kδ) [µM] | IC50 (mTOR) [µM] | Structure (SMILES) | IC50 (HUH7) [µM] | IC50 (CaCo2) [µM] | IC50 (MDA) [µM] | IC50 (HCT116) [µM] | IC50 (PC3) [µM] | IC50 (NCl) [µM] | IC50 (HacaT) [µM] | IC50 (Fibroblasts) [µM] |
| --- | --- | --- | --- | --- | --- | --- | --- | --- | --- | --- | --- | --- | --- |
| 200 to 202 | – | – | – | – | O=C(Nc1ccc(-c2nc(N3CCOCC3)c3ncc(CN4CCOCC4)cc3n2)cc1)Nc1cccc(CO)c1 [Compound 80, 1-[3-(hydroxymethyl)phenyl]-3-{4-[4-(morpholin-4-yl)-7-(morpholin-4-ylmethyl)pyrido[3,2-d]pyrimidin-2-yl]phenyl}urea] | – | – | – | – | – | – | – | – |
| > 260 | 1.6 | 1.7 | 2.1 | 0.37 | C=Cc1cnc2c(N3CCOCC3)nc(-c3ccc(O)cc3)nc2c1 [Compound 16, 4-(4-Morpholino-7-vinylpyrido[3,2-d]pyrimidin-2-yl)phenol] | > 25 | > 25 | > 25 | > 25 | > 25 | > 25 | > 25 | > 25 |
| > 260 | 0.023 | – | – | – | O=C(Nc1ccc(CO)cc1)Nc1ccc(-c2nc(N3CCOCC3)c3ncc(CN4CCOCC4)cc3n2)cc1 [Compound 78, 1-[4-(hydroxymethyl)phenyl]-3-{4-[4-(morpholin-4-yl)-7-(morpholin-4 ylmethyl)pyrido[3,2-d]pyrimidin-2-yl]phenyl}urea] | 2 | 12 | 3 | 1 | 2 | 3 | 2 | > 25 |
| 200 | – | – | – | – | O=[N+]([O-])c1ccc(-c2nc(N3CCOCC3)c3ncc(Cl)cc3n2)cc1 [Compound 10, 4-(7-chloro-2-(4-nitrophenyl)pyrido[3,2-d]pyrimidin-4-yl)morpholine] | – | – | – | – | – | – | – | – |
| – | 0.109 | 0.428 | 0.011 | 0.249 | Oc1cccc(-c2nc(N3CCOCC3)c3ncc(CNC4CC4)cc3n2)c1 [Compound 27, 3-(7-((cyclopropylamino)methyl)-4-morpholinopyrido[3,2-d]pyrimidin-2-yl)phenolhydrochloride] | > 25 | 3 | > 25 | 5 | 2 | > 25 | > 25 | > 25 |
